Reference: patent US11022604B2, “Dock derived compound against laminin receptor (37 LR) and uses thereof” (Purdue Research Foundation, priority 2017, dated 2021)
pEC50: −log10 of the molar value.

Molecular target: T1, Peptide G (37 LR binding site for laminin, aa 161-180) (Homo sapiens, UniProt P08865)
T1 construct: purchased United Biosystems; host or cells: chemical synthesis
Test: Intrinsic tryptophan fluorescence binding assay, Peptide G
Conditions: 50 μM Peptide G, titration 0.1 to 100 μM; read-out: EC50, reduction of intrinsic tryptophan fluorescence
Procedure: FIG. 4. Reduction of Tryptophan Fluorescence by C3. 50 μM peptide G or Scramble G was incubated with concentrations of C3 ranging from 100 nM to 100 μM. Intrinsic tryptophan fluorescence was quantified at 350 nm emission (270 nm excitation) and graphed as a function of C3 dose after subtracting baseline C3 fluorescence. GraphPad Prism was used to determine an ECso for tryptophan reduction as described in the method (n=3±SEM).
Cell Viability Screen. PC-3, Endo, TC2-Ras, SH-SY5Y, and LNCaP cells were seeded in 96-well plates at 1,500 cells per well using the Scepter cell counter (EMD Millipore). […] Cell viability was measured by using the cell counting kit-8 (CCK-8, Dojindo). […] CCK-8 absorbance was measured at 450 nm using a GloMax Multimode Reader (Promega). Readings were performed the day after seeding to normalize for variations in cell seeding and after 96 hours of compound treatment. After each reading, CCK-8 media was removed and replaced with media containing compound as described previously. […] As described previously, an initial baseline CCK-8 reading was performed at 24 hours post seeding to correct for variations in seeding density. First, 450 nm values for each well were subtracted from media only readings to correct for baseline absorbance. Then, the 96 hour readings were normalized to their respective 24 hour readings to control for seeding variation. […]

T1 sequence (P08865 161-180 limits assumed): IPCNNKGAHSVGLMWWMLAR

pEC50: 4.79
Compound: O=C(c1cc(F)cc2c1OCOC2)N1CCN(C2c3ccccc3-c3ccccc32)CC1 [Compound C3, [4-(9h-fluoren-9-yl)piperazino](6-fluoro-4h-1,3-benzodioxin-8-yl)methanone]
